Test results as given in patent US12662451B2, “Chemical compounds and uses thereof” (GLAXOSMITHKLINE INTELLECTUAL PROPERTY (NO.4) LIMITED, priority 2023, dated 2026).
Where two headings read alike, the source gives them in different places.

Legend:
[1] = biological target: T1, recombinant full-length WRN protein (1-1432) (Homo sapiens, UniProt Q14191); test: WRN unwinding activity, fluorogenic 384-well assay (Example A); type: biochemical; conditions: WRN unwinding activity, 4 hr; Table 2; read-out: 4 hr UNW pIC50 (converted)
T1 construct: recombinant full-length WRN protein (1-1432)
How it was run: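 Read-out is end-point unwinding of a fluorophore/quencher duplex (ex 525, em 598 nm) after 60 min with 200 μM ATP and 12 nM DNA (2× stocks), EDTA stop. Compound first sat 4 h with 200 pM WRN (2× stock) in pH 8.0 Tris buffer; four-parameter fit gives pIC50.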

[2] = tested on: SW48 human colorectal cancer cells; test: Calculated free drug potency in SW48 cell assay, corrected with media free fraction (Example C); type: cell-based; conditions: Homo sapiens, SW48, SW48 pCC50 corrected with measured free fraction in cell assay media
How it was run: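 Free drug potency derives from correcting SW48 assay concentrations with the unbound fraction in medium. That fraction came from RED against pH 7.4 PBS, 1 μM nominal compound, 4 h at 37 °C, quantified by LC-MS/MS peak area ratios at T=240 versus T=0 min.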

[3] = tested on: SW48 human colorectal cancer cells (MSI-H cancer cells); test: SW48 cell viability, CellTiter-Glo, 120 hours (Example B); conditions: Homo sapiens
[4] = Cell culture media unbound percentage and stability by rapid equilibrium dialysis (Example C); type: in vitro ADME; conditions: bovine, cell assay medium (RPMI-1640 with 10% fetal bovine serum), pH 7.4, rapid equilibrium dialysis, 4 hours at 37° C., read-out: Cell Culture Media Binding (% unbound)
How it was run: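 Percent unbound in cell assay medium came from the LC-MS/MS receiver:donor peak area ratio, with stability taken as the 240 min over 0 min ratio. Set-up: 1 μM nominal compound in medium dialysed against pH 7.4 PBS (100 mM phosphate, 150 mM NaCl), 4 h, 37° C, shaken, in triplicate.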

[5] = SW48, 120 h, read-out: SW48 pCC50, SW48 cell viability, 120 hours incubation (converted), Table 2
[6] = SW48, read-out: SW48 pCC50, measured potency from Example B, as repeated in Table 3 (converted)

T1 sequence (Q14191 whole entry): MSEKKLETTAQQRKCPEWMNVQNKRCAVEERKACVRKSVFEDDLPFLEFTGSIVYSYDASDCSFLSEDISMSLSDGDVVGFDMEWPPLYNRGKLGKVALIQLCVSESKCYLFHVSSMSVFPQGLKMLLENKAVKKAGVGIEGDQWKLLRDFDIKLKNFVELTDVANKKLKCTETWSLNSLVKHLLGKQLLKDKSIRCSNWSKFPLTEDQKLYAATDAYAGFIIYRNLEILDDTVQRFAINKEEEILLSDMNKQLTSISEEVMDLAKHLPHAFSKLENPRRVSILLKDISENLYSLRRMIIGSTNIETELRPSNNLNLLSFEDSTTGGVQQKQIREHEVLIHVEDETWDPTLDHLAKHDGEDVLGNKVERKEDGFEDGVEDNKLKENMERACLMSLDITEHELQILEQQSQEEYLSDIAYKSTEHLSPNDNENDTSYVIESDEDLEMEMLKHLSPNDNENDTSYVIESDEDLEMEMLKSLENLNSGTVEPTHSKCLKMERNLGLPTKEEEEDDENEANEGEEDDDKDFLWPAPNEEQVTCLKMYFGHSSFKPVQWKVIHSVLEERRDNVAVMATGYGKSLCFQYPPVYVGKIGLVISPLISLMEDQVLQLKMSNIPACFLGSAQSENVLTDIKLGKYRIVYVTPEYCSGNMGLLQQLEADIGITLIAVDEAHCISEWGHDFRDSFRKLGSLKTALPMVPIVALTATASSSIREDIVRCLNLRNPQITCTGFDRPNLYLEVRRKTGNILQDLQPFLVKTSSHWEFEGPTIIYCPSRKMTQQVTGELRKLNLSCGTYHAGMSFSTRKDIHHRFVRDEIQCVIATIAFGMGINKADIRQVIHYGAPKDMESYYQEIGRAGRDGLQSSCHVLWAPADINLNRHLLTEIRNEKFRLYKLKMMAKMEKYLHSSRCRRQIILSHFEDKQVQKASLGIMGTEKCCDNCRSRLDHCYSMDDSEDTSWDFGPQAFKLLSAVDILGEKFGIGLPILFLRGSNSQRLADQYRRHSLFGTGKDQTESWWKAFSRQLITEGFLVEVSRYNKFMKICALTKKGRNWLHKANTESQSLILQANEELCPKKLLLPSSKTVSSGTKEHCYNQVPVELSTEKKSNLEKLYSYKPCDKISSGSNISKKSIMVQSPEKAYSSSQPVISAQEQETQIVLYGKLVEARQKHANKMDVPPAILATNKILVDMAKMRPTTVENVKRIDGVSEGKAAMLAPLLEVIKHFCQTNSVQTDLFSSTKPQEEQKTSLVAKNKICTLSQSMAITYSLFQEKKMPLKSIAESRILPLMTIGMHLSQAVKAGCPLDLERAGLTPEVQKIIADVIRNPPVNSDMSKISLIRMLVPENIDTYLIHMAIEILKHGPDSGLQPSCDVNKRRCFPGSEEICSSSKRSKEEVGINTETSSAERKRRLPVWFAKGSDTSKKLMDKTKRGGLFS

Compound | IC50 [1] [nM] | fraction unbound at 4 h, 1 µM [4] | CC50 [2] [nM] | CC50 [3, 5] [nM] | CC50 [3, 6] [nM]
CN(C)c1nc2cc(S(=O)(=O)N(C)c3ccc([C@H]4CCC[C@@H](C(=O)Nc5ccc(C(F)(F)F)cc5F)[C@@H]4C(=O)O)cc3)ccc2n1C [Example 121, (1R,2S,6R)-2-(4-((2-(dimethylamino)-N, 1-dimethyl-1H-benzo[d]imidazole)-5-sulfonamido)phenyl)-6-((2-fluoro-4-(trifluoromethyl)phenyl)carbamoyl)cyclohexane-1-carboxylic acid] | 3.16 | 0.0195 | 6.17 | 316 | 316
CN1CCN(C)c2cc(S(=O)(=O)N(C)c3ccc([C@H]4CCC[C@@H](C(=O)Nc5ccc(C(F)(F)F)cc5F)[C@@H]4C(=O)O)cc3)ccc21 [Example 123, (1R,2R,6S)-2-((2-fluoro-4-(trifluoromethyl)phenyl)carbamoyl)-6-(4-((N,1,4-trimethyl-1,2,3,4-tetrahydroquinoxaline)-6-sulfonamido)phenyl)cyclohexane-1-carboxylic acid] | 3.98 | 0.0071 | 3.55 | 501 | 501
Cc1nc2cc(S(=O)(=O)N(C)c3ccc([C@H]4CCC[C@@H](C(=O)Nc5ccc(C(F)(F)F)cc5F)[C@@H]4C(=O)O)cc3)cnc2n1C [Example 124, (1R,2R,6S)-2-((2-fluoro-4-(trifluoromethyl)phenyl)carbamoyl)-6-(4-((N,2,3-trimethyl-3H-imidazo[4,5-b]pyridine)-6-sulfonamido)phenyl)cyclohexane-1-carboxylic acid] | 3.98 | 0.097 | 49 | 501 | 501
Cc1nc2cc(S(=O)(=O)N(C)c3ccc([C@H]4CCC[C@@H](C(=O)Nc5ccc(C(F)(F)F)cc5F)[C@@H]4C(=O)O)cc3)ncc2n1C [Example 125, (1R,2R,6S)-2-((2-fluoro-4-(trifluoromethyl)phenyl)carbamoyl)-6-(4-((N,2,3-trimethyl-3H-imidazo[4,5-c]pyridine)-6-sulfonamido)phenyl)cyclohexane-1-carboxylic acid] | 2 | 0.0433 | 69.2 | 1580 | 1580
Cc1nc2cc(S(=O)(=O)N(C)c3ccc([C@H]4CCC[C@@H](C(=O)Nc5ccc(C(F)(F)F)cc5F)[C@@H]4C(=O)O)cc3)cc(F)c2n1C [Example 126, (1R,2R,6S)-2-((2-fluoro-4-(trifluoromethyl)phenyl)carbamoyl)-6-(4-((7-fluoro-N, 1,2-trimethyl-1H-benzo[d]imidazole)-5-sulfonamido)phenyl)cyclohexane-1-carboxylic acid] | 6.31 | 0.058 | 36.3 | 631 | 631
Cc1nc2cc(S(=O)(=O)N(C)c3ccc([C@H]4CCC[C@@H](C(=O)Nc5ccc(C(F)(F)F)cc5F)[C@@H]4C(=O)O)cc3)c(F)cc2n1C [Example 127, (1R,2R,6S)-2-((2-fluoro-4-(trifluoromethyl)phenyl)carbamoyl)-6-(4-((6-fluoro-N,1,2-trimethyl-1H-benzo[d]imidazole)-5-sulfonamido)phenyl)cyclohexane-1-carboxylic acid] | 3.98 | 0.0443 | 44.7 | 1000 | 1000
Cc1nc2c(F)c(S(=O)(=O)N(C)c3ccc([C@H]4CCC[C@@H](C(=O)Nc5ccc(C(F)(F)F)cc5F)[C@@H]4C(=O)O)cc3)ccc2n1C [Example 128, (1R,2R,6S)-2-((2-fluoro-4-(trifluoromethyl)phenyl)carbamoyl)-6-(4-((4-fluoro-N,1,2-trimethyl-1H-benzo[d]imidazole)-5-sulfonamido)phenyl)cyclohexane-1-carboxylic acid] | 3.98 | 0.0452 | 45.7 | 1000 | 1000
Cc1nc2cc(S(=O)(=O)N(C)c3ccc([C@H]4CCC[C@@H](C(=O)Nc5ccc(C(F)(F)F)cc5F)[C@@H]4C(=O)O)cc3)cc(Cl)c2n1C [Example 129, (1R,2S,6R)-2-(4-((7-chloro-N,1,2-trimethyl-1H-benzo[d]imidazole)-5-sulfonamido)phenyl)-6-((2-fluoro-4-(trifluoromethyl)phenyl)carbamoyl)cyclohexane-1-carboxylic acid] | 20 | 0.0143 | 9.12 | 631 | 631
CC(C)c1nc2cc(S(=O)(=O)N(C)c3ccc([C@H]4CCC[C@@H](C(=O)Nc5ccc(C(F)(F)F)cc5F)[C@@H]4C(=O)O)cc3)ccc2n1C [Example 132, (1R,2R,6S)-2-((2-fluoro-4-(trifluoromethyl)phenyl)carbamoyl)-6-(4-((2-isopropyl-N, 1-dimethyl-1H-benzo[d]imidazole)-5-sulfonamido)phenyl)cyclohexane-1-carboxylic acid] | 12.6 | 0.0349 | 21.9 | 631 | 631

The next lines start with results.

IC50 [1] [nM] | fraction unbound at 4 h, 1 µM [4] | Compound | CC50 [2] [nM] | CC50 [3, 5] [nM] | CC50 [3, 6] [nM]
2.51 | 0.0405 | CN(c1ccc([C@H]2CCC[C@@H](C(=O)Nc3ccc(C(F)(F)F)cc3F)[C@@H]2C(=O)O)cc1)S(=O)(=O)c1ccc2c(c1)OCC2 [Example 112, (1R,2R,6S)-2-((2-fluoro-4-(trifluoromethyl)phenyl)carbamoyl)-6-(4-((N-methyl-2,3-dihydrobenzofuran)-6-sulfonamido)phenyl)cyclohexane-1-carboxylic acid] | 32.4 | 794 | 794
1.58 | 0.0899 | CN(c1ccc([C@H]2CCC[C@@H](C(=O)Nc3ccc(C(F)(F)F)cc3F)[C@@H]2C(=O)O)cc1)S(=O)(=O)c1cccc(C2CNC(=O)C2)c1 (stereo partly drawn) [Example 113, (1R,2R,6S)-2-((2-fluoro-4-(trifluoromethyl)phenyl)carbamoyl)-6-(4-((N-methyl-3-(5-oxopyrrolidin-3-yl)phenyl)sulfonamido)phenyl)cyclohexane-1-carboxylic acid] | 56.2 | 631 | 631
1.58 | 0.286 | CN1CCC[C@@H](c2cccc(S(=O)(=O)N(C)c3ccc([C@H]4CCC[C@@H](C(=O)Nc5ccc(C(F)(F)F)cc5F)[C@@H]4C(=O)O)cc3)c2)C1 [Example 116, (1R,2R,6S)-2-((2-fluoro-4-(trifluoromethyl)phenyl)carbamoyl)-6-(4-((N-methyl-3-((S)-1-methylpiperidin-3-yl)phenyl)sulfonamido)phenyl)cyclohexane-1-carboxylic acid] | 145 | 501 | 501
1.58 | 0.231 | CN(c1ccc([C@H]2CCC[C@@H](C(=O)Nc3ccc(C(F)(F)F)cc3F)[C@@H]2C(=O)O)cc1)S(=O)(=O)c1cccc(C(=O)N2CCOCC2)c1 [Example 119, (1R,2R,6S)-2-((2-fluoro-4-(trifluoromethyl)phenyl)carbamoyl)-6-(4-((N-methyl-3-(morpholine-4-carbonyl)phenyl)sulfonamido)phenyl)cyclohexane-1-carboxylic acid] | 229 | 1000 | 1000
10 | 0.0107 | CN(c1ccc([C@H]2CCC[C@@H](C(=O)Nc3ccc(C(F)(F)F)cc3F)[C@@H]2C(=O)O)cc1)S(=O)(=O)c1cccc(C2CC2(F)F)c1 (stereo partly drawn) [Example 120, (1R,2S,6R)-2-(4-((3-(2,2-difluorocyclopropyl)-N-methylphenyl)sulfonamido)phenyl)-6-((2-fluoro-4-(trifluoromethyl)phenyl)carbamoyl)cyclohexane-1-carboxylic acid] | 33.9 | 3160 | 3160
7.94 | 0.0056 | CN1CCOc2ccc(S(=O)(=O)N(C)c3ccc([C@H]4CCC[C@@H](C(=O)Nc5ccc(C(F)(F)F)cc5F)[C@@H]4C(=O)O)cc3)cc21 [Example 122, (1R,2S,6R)-2-(4-((N,4-dimethyl-3,4-dihydro-2H-benzo[b][1,4]oxazine)-6-sulfonamido)phenyl)-6-((2-fluoro-4-cyclohe(trifluoromethyl)phenyl)carbamoyl)xane-1-carboxylic acid] | 5.62 | 1000 | 1000
6.31 | 0.0326 | CN(c1ccc([C@H]2CCC[C@@H](C(=O)Nc3ccc(C(F)(F)F)cc3F)[C@@H]2C(=O)O)cc1)S(=O)(=O)c1ccc2c(c1)nc(C1CC1)n2C [Example 130, (1R,2S,6R)-2-(4-((2-cyclopropyl-N,1-dimethyl-1H-benzo[d]imidazole)-5-sulfonamido)phenyl)-6-((2-fluoro-4-(trifluoromethyl)phenyl)carbamoyl)cyclohexane-1-carboxylic acid] | 16.2 | 501 | 501
